Laboratory results published in patent publication US8084457B2, “Pharmaceutically active 4,6-disubstituted aminopyrimidine derivatives as modulators of protein kinases” (Lead Discovery Center GmbH, priority 2003, dated 2011).

Columns and labels:
CDK2/CyclinA = molecular target: T1, CDK2/CyclinA (Homo sapiens, UniProt P24941); test: Kinase assay determining CDK2/CyclinA activity; type: biochemical; conditions: read-out: CDK2 (activity range)
T1 construct: purchased Proqinase
Description: Kinase Assays Determining CDK2/CyclinA and CDK5/p35 Activity:
Kinase assays were performed as described by the manufacturers recommendations (Proqinase for CDK2/CyclinA and Upsate for CDK5/p35).

CDK9/Cyclin T1 = molecular target: T2, CDK9/Cyclin T1 (Homo sapiens, UniProt P50750); test: Kinase assay using CDK9/Cyclin T1; type: biochemical; conditions: read-out: CDK9 (activity range)
T2 construct: made in house; host or cells: HEK293 cells, recombinant adenovirus
T2 sequence (P50750 whole entry): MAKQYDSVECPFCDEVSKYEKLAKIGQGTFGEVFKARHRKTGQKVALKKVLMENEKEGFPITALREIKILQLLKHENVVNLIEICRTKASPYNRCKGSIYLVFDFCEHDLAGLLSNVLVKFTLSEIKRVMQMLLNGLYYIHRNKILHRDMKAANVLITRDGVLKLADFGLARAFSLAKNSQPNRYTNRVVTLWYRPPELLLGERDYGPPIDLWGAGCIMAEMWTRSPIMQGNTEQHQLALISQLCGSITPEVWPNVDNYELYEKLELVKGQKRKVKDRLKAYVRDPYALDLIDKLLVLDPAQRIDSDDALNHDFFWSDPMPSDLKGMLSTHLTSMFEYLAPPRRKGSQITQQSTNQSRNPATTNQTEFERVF
T2 sequence (O60563 whole entry partner): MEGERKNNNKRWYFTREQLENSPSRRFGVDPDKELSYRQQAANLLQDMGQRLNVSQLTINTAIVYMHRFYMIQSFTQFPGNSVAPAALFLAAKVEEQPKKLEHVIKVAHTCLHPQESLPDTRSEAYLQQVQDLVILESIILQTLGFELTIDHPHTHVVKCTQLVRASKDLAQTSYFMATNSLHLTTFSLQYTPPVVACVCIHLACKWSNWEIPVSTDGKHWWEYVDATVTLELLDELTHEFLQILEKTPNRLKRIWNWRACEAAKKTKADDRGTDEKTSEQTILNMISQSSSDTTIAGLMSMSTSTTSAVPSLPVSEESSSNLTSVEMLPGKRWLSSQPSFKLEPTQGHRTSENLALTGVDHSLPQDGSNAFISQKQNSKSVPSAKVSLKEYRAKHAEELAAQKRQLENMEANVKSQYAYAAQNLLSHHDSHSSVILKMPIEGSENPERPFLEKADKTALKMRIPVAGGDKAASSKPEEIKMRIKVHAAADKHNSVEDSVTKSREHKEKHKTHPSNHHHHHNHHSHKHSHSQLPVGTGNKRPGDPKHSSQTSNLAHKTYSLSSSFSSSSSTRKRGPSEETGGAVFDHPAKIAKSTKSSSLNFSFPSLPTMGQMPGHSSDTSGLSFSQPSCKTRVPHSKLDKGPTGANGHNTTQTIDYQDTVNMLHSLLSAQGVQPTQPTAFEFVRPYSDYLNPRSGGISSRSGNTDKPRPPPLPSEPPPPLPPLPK
Excerpt: Cloning of CDK9 and Cyclin T1:
Both cDNA fragments were cloned by PCR into pDONR201 vectors using the gateway recombination system (Invitrogen) according to the manufacturer's recommendations. The fragments were subcloned into a gateway-adapted shuttle vector (pPM7) for production of recombinant adenovirus. All plasmids were verified by restriction digests and sequencing analysis.
Expression and Purification of CDK9/Cyclin T1 Proteins:
Expression and purification was in principle performed as described by Cotten et al. (M. Cotten et al., Nucleic acids research, 2003, 31(28), 128).
Kinase Assay Using CDK9/Cyclin T1:
Kinase assays were performed in principle as described by Cotten et al. (M. Cotten et al., Nucleic acids research, 2003, 31(28), 128).

SMILES	IC50 (CDK2/CyclinA)	IC50 (CDK9/Cyclin T1)
CCOc1ccccc1-c1cc(Nc2ccc(NC(=O)c3ccc(N)cc3)cc2)ncn1 [(55)]	1 to 10 µM	0.001 to 1 µM
COc1ccccc1-c1cc(Nc2cccc(NC(=O)C(C)(C)C)c2)ncn1 [(122)]	1 to 10 µM	1 to 10 µM
COc1ncccc1-c1cc(Nc2ccc(C)c(NS(C)(=O)=O)c2)ncn1 [(176)]	1 to 10 µM	0.001 to 1 µM
Cc1ccc(Nc2cc(-c3cncnc3)ncn2)cc1NS(C)(=O)=O [(110)]	1 to 10 µM	1 to 10 µM
COc1ccccc1-c1cc(Nc2ccc(NC(=O)c3cn(C)cn3)cc2)ncn1 [(70)]	1 to 10 µM	0.001 to 1 µM
CC(C)Oc1ccccc1-c1cc(NCCc2ccncc2)ncn1 [(99)]	1 to 10 µM	0.001 to 1 µM
COc1ccccc1-c1cc(Nc2ccc(NC(=O)NC3CCCCC3)cc2)ncn1 [(38)]	1 to 10 µM	0.001 to 1 µM
CC(C)(C)C(=O)Nc1ccc(Nc2cc(-c3ccccc3F)ncn2)cc1 [(127)]	10 to 250 µM	10 to 250 µM
COc1ccc(-c2cc(Nc3ccc(C)c(NS(C)(=O)=O)c3)ncn2)cc1 [(3)]	0.001 to 1 µM	1 to 10 µM
COc1ccccc1-c1cc(Nc2ccc(C(=O)NC3CCCCC3)cc2)ncn1 [(44)]	1 to 10 µM	0.001 to 1 µM
Nc1ccc(C(=O)Nc2ccc(Nc3cc(/C=C/c4ccccc4)ncn3)cc2)cc1 [(32)]	10 to 250 µM	10 to 250 µM
COc1ccccc1-c1cc(Nc2ccc(-c3nc4ccccc4[nH]3)cc2)ncn1 [(63)]	0.001 to 1 µM	0.001 to 1 µM
Nc1ccc(C(=O)Nc2ccc(Nc3cc(-c4ccc(O)cc4)ncn3)cc2)cc1 [(16)]	1 to 10 µM	1 to 10 µM
Cc1ccc(Nc2cc(-c3ccccc3OC(C)C)ncn2)cc1NS(C)(=O)=O [(158)]	0.001 to 1 µM	0.001 to 1 µM
CCc1ccccc1-c1cc(Nc2ccc(NC(=O)C(C)(C)C)cc2)ncn1 [(131)]	1 to 10 µM	10 to 250 µM
COc1ccccc1-c1cc(Nc2ccc(C(=O)Nc3ccccc3)cc2)ncn1 [(52)]	10 to 250 µM	0.001 to 1 µM
COc1ccccc1-c1cc(Nc2ccc(NC(=O)c3ccccc3N)cc2)ncn1 [(20)]	1 to 10 µM	0.001 to 1 µM
Nc1ccc(C(=O)Nc2ccc(Nc3cc(-c4ccccc4OCc4ccccc4)ncn3)cc2)cc1 [(4)]	1 to 10 µM	0.001 to 1 µM

SMILES	IC50 (CDK2/CyclinA)	IC50 (CDK9/Cyclin T1)
c1ccc(COc2ccccc2-c2cc(NCCc3ccncc3)ncn2)cc1 [(7)]	1 to 10 µM	0.001 to 1 µM
COc1ccccc1-c1cc(Nc2ccc(NC(=O)NCc3ccc(C)cc3)cc2)ncn1 [(112)]	10 to 250 µM	0.001 to 1 µM
COc1ccc(-c2cc(Nc3ccc(C(=O)N[C@@H]4CCCC[C@H]4N)cc3)ncn2)cc1 (racemic) [(161)]	1 to 10 µM	0.001 to 1 µM
COc1ccccc1-c1cc(Nc2ccc(NC(=O)c3ccc4ccccc4c3O)cc2)ncn1 [(139)]	1 to 10 µM	0.001 to 1 µM
COc1ccc(-c2cc(Nc3ccc(NC(=O)c4ccc(N)cc4)cc3)ncn2)c(OC)c1 [(31)]	0.001 to 1 µM	0.001 to 1 µM
Cc1ccc(Nc2cc(-c3cccc(N)c3)ncn2)cc1NS(C)(=O)=O [(12)]	0.001 to 1 µM	0.001 to 1 µM
Nc1ccc(C(=O)Nc2ccc(Nc3cc(Cl)ncn3)cc2)cc1 [(25)]	10 to 250 µM	10 to 250 µM
Cc1ccc(S(=O)(=O)Nc2ccc(Nc3cc(-c4cccc(/C=C/C(=O)O)c4)ncn3)cc2)cc1 [(40)]	10 to 250 µM	10 to 250 µM
COc1ccccc1-c1cc(Nc2ccc(NS(=O)(=O)c3ccccc3)cc2)ncn1 [(155)]	0.001 to 1 µM	0.001 to 1 µM
CN1CCC(Nc2cc(Nc3ccc(NC(=O)C(C)(C)C)cc3)ncn2)CC1 [(74)]	10 to 250 µM	10 to 250 µM
Cc1ccc(Nc2cc(-c3ccccc3O)ncn2)cc1NS(C)(=O)=O [(181)]	0.001 to 1 µM	0.001 to 1 µM
COc1ccccc1-c1cc(N(C)c2ccc(N)cc2)ncn1 [(26)]	1 to 10 µM	1 to 10 µM
COc1ccccc1-c1cc(Nc2cccc(C(N)=O)c2)ncn1 [(115)]	0.001 to 1 µM	0.001 to 1 µM
Nc1cccc(-c2cc(NCCc3ccncc3)ncn2)c1 [(13)]	1 to 10 µM	1 to 10 µM
Nc1cccc(-c2cc(Nc3ccc(S(N)(=O)=O)cc3)ncn2)c1 [(117)]	0.001 to 1 µM	1 to 10 µM
O=C(Nc1ccc(Nc2cc(-c3ccc(Oc4ccccc4)cc3)ncn2)cc1)[C@@H]1CCCCN1 [(174)]	1 to 10 µM	0.001 to 1 µM
COc1cccc(-c2cc(Nc3ccc(NC(=O)c4ccc(N)cc4)cc3)ncn2)c1OC [(56)]	1 to 10 µM	1 to 10 µM
